From patent US20230085307A1, “PYRIDAZINONE COMPOUND AND HERBICIDE” (NISSAN CHEMICAL CORPORATION, priority 2019, published 2023)

Tests used:
lambsquarters = test: Test Example 4: herbicidal effect by soil treatment (Table 19, symbol O); format: in vivo, lambsquarters (Chenopodium album)
In short: (§1)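 Step 1: sow seeds in sterilized diluvial soil, cover ~1.5 cm. Step 2: spray diluted emulsion onto soil surface at predetermined rate. Step 3: greenhouse, 25–30° C, three weeks. Step 4: grade effect on each plant by earlier criteria.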

barnyard grass [1] = test: Test Example 3: herbicidal effect by foliage application, Wagner pot (Table 18, symbol H); format: in vivo, barnyard grass (Echinochloa crus-galli)
In short: (§2)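 Plants were sown in alluvial soil held under 0.1–0.5 cm standing water and grown 14 days in a greenhouse at 25–30 °C. An emulsifiable formulation, water-diluted to the set dose, was then sprayed onto the foliage, and effects were scored three weeks later using previously defined criteria.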

Italian ryegrass = test: Test Example 5: herbicidal effect by foliage application, plastic box (Table 20, symbol K); format: in vivo, Italian ryegrass (Lolium multiflorum); conditions: foliage application, 3 weeks after application
In short: (§3)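 Foliar spray test: emulsion formulation diluted in water to a set application rate, sprayed onto 14-day-old plants raised in diluvial soil at 25° C to 30° C under glass. Both herbicidal effect and crop effect rated visually three weeks later.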

Chinese sprangletop = test: Test Example 3: herbicidal effect by foliage application, Wagner pot (Table 18, symbol D); format: in vivo, chinese sprangletop (Leptochloa chinensis)
In short: as §2

southern crabgrass = test: Test Example 4: herbicidal effect by soil treatment (Table 19, symbol F); format: in vivo, southern crabgrass (Digitaria ciliaris)
In short: as §1

blackgrass [2] = test: Test Example 4: herbicidal effect by soil treatment (Table 19, symbol J); format: in vivo, blackgrass (Alopecurus myosuroides)
In short: as §1

late watergrass = test: Test Example 2: herbicidal activity, application during weed generation under submerged conditions (Table 17, symbol A); format: in vivo, late watergrass (Echinochloa oryzicola); conditions: application during weed generation, submerged conditions
In short: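 Effect on each weed is rated three weeks post-treatment, using the same scoring criteria as the preceding test. Plants grow from mixed-sown seed in flooded alluvial soil (4 cm water) at 25° C. to 30° C., and are treated at one to two leaves with diluted emulsion dropped onto the water.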

redroot pigweed = test: Test Example 4: herbicidal effect by soil treatment (Table 19, symbol N); format: in vivo, redroot pigweed (Amaranthus retroflexus)
In short: as §1

barnyard grass [3] = test: Test Example 5: herbicidal effect by foliage application, plastic box (Table 20, symbol H); format: in vivo, barnyard grass (Echinochloa crus-galli); conditions: foliage application, 3 weeks after application
In short: as §3

chickweed = test: Test Example 4: herbicidal effect by soil treatment (Table 19, symbol P); format: in vivo, common chickweed (Stellaria media)
In short: as §1

wild oat = test: Test Example 5: herbicidal effect by foliage application, plastic box (Table 20, symbol I); format: in vivo, wild oat (Avena fatua); conditions: foliage application, 3 weeks after application
In short: as §3

persian speedwell = test: Test Example 5: herbicidal effect by foliage application, plastic box (Table 20, symbol R); format: in vivo, Persian speedwell (Veronica persica); conditions: foliage application, 3 weeks after application
In short: as §3

barnyard grass [4] = test: Test Example 4: herbicidal effect by soil treatment (Table 19, symbol H); format: in vivo, barnyard grass (Echinochloa crus-galli)
In short: as §1

blackgrass [5] = test: Test Example 5: herbicidal effect by foliage application, plastic box (Table 20, symbol J); format: in vivo, blackgrass (Alopecurus myosuroides); conditions: foliage application, 3 weeks after application
In short: as §3

velvetleaf = test: Test Example 5: herbicidal effect by foliage application, plastic box (Table 20, symbol M); format: in vivo, velvetleaf (Abutilon theophrasti); conditions: foliage application, 3 weeks after application
In short: as §3

SMILES: Cc1nn(C)c(=O)c(-c2c(-c3ccc(OCCC(F)(F)F)cc3)sc3ccccc23)c1O [1-206]
- O: lambsquarters, herbicidal effect rating (lambsquarters; AAH 320 g/ha): 5 (Herbicidal rate of 90% or more (almost completely withered))
- herbicidal effect on H (barnyard grass), rating 0-5 (barnyard grass [1]; 320 g/ha): 5 (Herbicidal rate of 90% or more (almost completely withered))
- effect on Italian ryegrass (K) (Italian ryegrass; 320 g/ha): 5 (Herbicidal rate of 90% or more (almost completely withered))
- herbicidal effect on D (Chinese sprangletop), rating 0-5 (Chinese sprangletop; 320 g/ha): 5 (Herbicidal rate of 90% or more (almost completely withered))
- F: southern crabgrass, herbicidal effect rating (southern crabgrass; AAH 320 g/ha): 4 (Herbicidal rate of 70% or more and less than 90%)
- J: blackgrass, herbicidal effect rating (blackgrass [2]; AAH 320 g/ha): 4 (Herbicidal rate of 70% or more and less than 90%)
- herbicidal effect rating, A: late watergrass (late watergrass; AAH 320 g/ha): 5 (Herbicidal rate of 90% or more (almost completely withered))
- N: redroot pigweed, herbicidal effect rating (redroot pigweed; AAH 320 g/ha): 5 (Herbicidal rate of 90% or more (almost completely withered))
- effect on barnyard grass (H) (barnyard grass [3]; 320 g/ha): 5 (Herbicidal rate of 90% or more (almost completely withered))
- P: chickweed, herbicidal effect rating (chickweed; AAH 320 g/ha): 3 (Herbicidal rate of 40% or more and less than 70%)
- effect on wild oat (I) (wild oat; 320 g/ha): 2 (Herbicidal rate of 20% or more and less than 40%)
- effect on persian speedwell (R) (persian speedwell; 320 g/ha): 5 (Herbicidal rate of 90% or more (almost completely withered))
- H: barnyard grass, herbicidal effect rating (barnyard grass [4]; AAH 320 g/ha): 5 (Herbicidal rate of 90% or more (almost completely withered))
- effect on blackgrass (J) (blackgrass [5]; 320 g/ha): 5 (Herbicidal rate of 90% or more (almost completely withered))
- effect on velvetleaf (M) (velvetleaf; 320 g/ha): 5 (Herbicidal rate of 90% or more (almost completely withered))

SMILES: C=C(C)COc1ccc(-c2sc3ccccc3c2-c2c(O)c(C)nn(C)c2=O)cc1 [1-208]
- O: lambsquarters, herbicidal effect rating (lambsquarters; AAH 320 g/ha): 0 (Herbicidal rate of 5% or less (almost no effect))
- herbicidal effect on H (barnyard grass), rating 0-5 (barnyard grass [1]; 320 g/ha): 5 (Herbicidal rate of 90% or more (almost completely withered))
- effect on Italian ryegrass (K) (Italian ryegrass; 320 g/ha): 5 (Herbicidal rate of 90% or more (almost completely withered))
- herbicidal effect on D (Chinese sprangletop), rating 0-5 (Chinese sprangletop; 320 g/ha): 5 (Herbicidal rate of 90% or more (almost completely withered))
- F: southern crabgrass, herbicidal effect rating (southern crabgrass; AAH 320 g/ha): 0 (Herbicidal rate of 5% or less (almost no effect))
- J: blackgrass, herbicidal effect rating (blackgrass [2]; AAH 320 g/ha): 0 (Herbicidal rate of 5% or less (almost no effect))
- herbicidal effect rating, A: late watergrass (late watergrass; AAH 320 g/ha): 5 (Herbicidal rate of 90% or more (almost completely withered))
- N: redroot pigweed, herbicidal effect rating (redroot pigweed; AAH 320 g/ha): 0 (Herbicidal rate of 5% or less (almost no effect))
- effect on barnyard grass (H) (barnyard grass [3]; 320 g/ha): 5 (Herbicidal rate of 90% or more (almost completely withered))
- P: chickweed, herbicidal effect rating (chickweed; AAH 320 g/ha): 3 (Herbicidal rate of 40% or more and less than 70%)
- effect on wild oat (I) (wild oat; 320 g/ha): 4 (Herbicidal rate of 70% or more and less than 90%)
- effect on persian speedwell (R) (persian speedwell; 320 g/ha): 5 (Herbicidal rate of 90% or more (almost completely withered))
- H: barnyard grass, herbicidal effect rating (barnyard grass [4]; AAH 320 g/ha): 0 (Herbicidal rate of 5% or less (almost no effect))
- effect on blackgrass (J) (blackgrass [5]; 320 g/ha): 4 (Herbicidal rate of 70% or more and less than 90%)
- effect on velvetleaf (M) (velvetleaf; 320 g/ha): 5 (Herbicidal rate of 90% or more (almost completely withered))

SMILES: C=C(Br)COc1ccc(-c2sc3ccccc3c2-c2c(O)c(C)nn(C)c2=O)cc1 [1-215]
- O: lambsquarters, herbicidal effect rating (lambsquarters; AAH 320 g/ha): 3 (Herbicidal rate of 40% or more and less than 70%)
- herbicidal effect on H (barnyard grass), rating 0-5 (barnyard grass [1]; 320 g/ha): 5 (Herbicidal rate of 90% or more (almost completely withered))
- effect on Italian ryegrass (K) (Italian ryegrass; 320 g/ha): 4 (Herbicidal rate of 70% or more and less than 90%)
- herbicidal effect on D (Chinese sprangletop), rating 0-5 (Chinese sprangletop; 320 g/ha): 5 (Herbicidal rate of 90% or more (almost completely withered))
- F: southern crabgrass, herbicidal effect rating (southern crabgrass; AAH 320 g/ha): 0 (Herbicidal rate of 5% or less (almost no effect))
- J: blackgrass, herbicidal effect rating (blackgrass [2]; AAH 320 g/ha): 0 (Herbicidal rate of 5% or less (almost no effect))
- herbicidal effect rating, A: late watergrass (late watergrass; AAH 320 g/ha): 3 (Herbicidal rate of 40% or more and less than 70%)
- N: redroot pigweed, herbicidal effect rating (redroot pigweed; AAH 320 g/ha): 5 (Herbicidal rate of 90% or more (almost completely withered))
- effect on barnyard grass (H) (barnyard grass [3]; 320 g/ha): 5 (Herbicidal rate of 90% or more (almost completely withered))
- P: chickweed, herbicidal effect rating (chickweed; AAH 320 g/ha): 1 (Herbicidal rate of 5% or more and less than 20%)
- effect on wild oat (I) (wild oat; 320 g/ha): 3 (Herbicidal rate of 40% or more and less than 70%)
- effect on persian speedwell (R) (persian speedwell; 320 g/ha): 5 (Herbicidal rate of 90% or more (almost completely withered))
- H: barnyard grass, herbicidal effect rating (barnyard grass [4]; AAH 320 g/ha): 0 (Herbicidal rate of 5% or less (almost no effect))
- effect on blackgrass (J) (blackgrass [5]; 320 g/ha): 2 (Herbicidal rate of 20% or more and less than 40%)
- effect on velvetleaf (M) (velvetleaf; 320 g/ha): 5 (Herbicidal rate of 90% or more (almost completely withered))

SMILES: Cc1nn(C)c(=O)c(-c2c(-c3ccc(OCCC4OCCO4)cc3)sc3ccccc23)c1O [1-223]
- O: lambsquarters, herbicidal effect rating (lambsquarters; AAH 246 g/ha): 3 (Herbicidal rate of 40% or more and less than 70%)
- herbicidal effect on H (barnyard grass), rating 0-5 (barnyard grass [1]; 246 g/ha): 5 (Herbicidal rate of 90% or more (almost completely withered))
- effect on Italian ryegrass (K) (Italian ryegrass; 246 g/ha): 3 (Herbicidal rate of 40% or more and less than 70%)
- herbicidal effect on D (Chinese sprangletop), rating 0-5 (Chinese sprangletop; 246 g/ha): 5 (Herbicidal rate of 90% or more (almost completely withered))
- F: southern crabgrass, herbicidal effect rating (southern crabgrass; AAH 246 g/ha): 0 (Herbicidal rate of 5% or less (almost no effect))
- J: blackgrass, herbicidal effect rating (blackgrass [2]; AAH 246 g/ha): 0 (Herbicidal rate of 5% or less (almost no effect))
- herbicidal effect rating, A: late watergrass (late watergrass; AAH 246 g/ha): 3 (Herbicidal rate of 40% or more and less than 70%)
- N: redroot pigweed, herbicidal effect rating (redroot pigweed; AAH 246 g/ha): 4 (Herbicidal rate of 70% or more and less than 90%)
- effect on barnyard grass (H) (barnyard grass [3]; 246 g/ha): 5 (Herbicidal rate of 90% or more (almost completely withered))
- P: chickweed, herbicidal effect rating (chickweed; AAH 246 g/ha): 0 (Herbicidal rate of 5% or less (almost no effect))
- effect on wild oat (I) (wild oat; 246 g/ha): 3 (Herbicidal rate of 40% or more and less than 70%)
- effect on persian speedwell (R) (persian speedwell; 246 g/ha): 5 (Herbicidal rate of 90% or more (almost completely withered))
- H: barnyard grass, herbicidal effect rating (barnyard grass [4]; AAH 246 g/ha): 3 (Herbicidal rate of 40% or more and less than 70%)
- effect on blackgrass (J) (blackgrass [5]; 246 g/ha): 2 (Herbicidal rate of 20% or more and less than 40%)
- effect on velvetleaf (M) (velvetleaf; 246 g/ha): 5 (Herbicidal rate of 90% or more (almost completely withered))

SMILES: CSCCSCc1ccc(-c2sc3ccccc3c2-c2c(O)c(C)nn(C)c2=O)cc1 [1-253]
- O: lambsquarters, herbicidal effect rating (lambsquarters; AAH 320 g/ha): 3 (Herbicidal rate of 40% or more and less than 70%)
- herbicidal effect on H (barnyard grass), rating 0-5 (barnyard grass [1]; 320 g/ha): 5 (Herbicidal rate of 90% or more (almost completely withered))
- effect on Italian ryegrass (K) (Italian ryegrass; 320 g/ha): 4 (Herbicidal rate of 70% or more and less than 90%)
- herbicidal effect on D (Chinese sprangletop), rating 0-5 (Chinese sprangletop; 320 g/ha): 3 (Herbicidal rate of 40% or more and less than 70%)
- F: southern crabgrass, herbicidal effect rating (southern crabgrass; AAH 320 g/ha): 0 (Herbicidal rate of 5% or less (almost no effect))
- J: blackgrass, herbicidal effect rating (blackgrass [2]; AAH 320 g/ha): 0 (Herbicidal rate of 5% or less (almost no effect))
- herbicidal effect rating, A: late watergrass (late watergrass; AAH 320 g/ha): 3 (Herbicidal rate of 40% or more and less than 70%)
- N: redroot pigweed, herbicidal effect rating (redroot pigweed; AAH 320 g/ha): 3 (Herbicidal rate of 40% or more and less than 70%)
- effect on barnyard grass (H) (barnyard grass [3]; 320 g/ha): 5 (Herbicidal rate of 90% or more (almost completely withered))
- P: chickweed, herbicidal effect rating (chickweed; AAH 320 g/ha): 3 (Herbicidal rate of 40% or more and less than 70%)
- effect on wild oat (I) (wild oat; 320 g/ha): 0 (Herbicidal rate of 5% or less (almost no effect))
- effect on persian speedwell (R) (persian speedwell; 320 g/ha): 5 (Herbicidal rate of 90% or more (almost completely withered))
- H: barnyard grass, herbicidal effect rating (barnyard grass [4]; AAH 320 g/ha): 0 (Herbicidal rate of 5% or less (almost no effect))
- effect on blackgrass (J) (blackgrass [5]; 320 g/ha): 0 (Herbicidal rate of 5% or less (almost no effect))
- effect on velvetleaf (M) (velvetleaf; 320 g/ha): 5 (Herbicidal rate of 90% or more (almost completely withered))
